Data from patent US8470844B2, “Imidazoacridinone derivative compounds and methods for their use” (Technion Research & Development Foundation Limited, priority 2008, dated 2013).

Key:
[1] = molecular target: T1, ABCG2 (A549/K1.5 cells) (Homo sapiens, UniProt Q9UNQ0); experiment: Fluorescence microscopy of nuclear accumulation of IAs in A549/K1.5 cells; type: cell-based; settings: 10 μM IA, 1 hr
T1 construct: Drug resistant A549/K1.5 cells with ABCG2 overexpression were maintained under a continuous drug selection with 1.5 μM C-1305; endogenous in cells; host or cells: A549/K1.5 (C-1305-selected subline of human non-small cell lung cancer A549)
T1 sequence (Q9UNQ0 1-655): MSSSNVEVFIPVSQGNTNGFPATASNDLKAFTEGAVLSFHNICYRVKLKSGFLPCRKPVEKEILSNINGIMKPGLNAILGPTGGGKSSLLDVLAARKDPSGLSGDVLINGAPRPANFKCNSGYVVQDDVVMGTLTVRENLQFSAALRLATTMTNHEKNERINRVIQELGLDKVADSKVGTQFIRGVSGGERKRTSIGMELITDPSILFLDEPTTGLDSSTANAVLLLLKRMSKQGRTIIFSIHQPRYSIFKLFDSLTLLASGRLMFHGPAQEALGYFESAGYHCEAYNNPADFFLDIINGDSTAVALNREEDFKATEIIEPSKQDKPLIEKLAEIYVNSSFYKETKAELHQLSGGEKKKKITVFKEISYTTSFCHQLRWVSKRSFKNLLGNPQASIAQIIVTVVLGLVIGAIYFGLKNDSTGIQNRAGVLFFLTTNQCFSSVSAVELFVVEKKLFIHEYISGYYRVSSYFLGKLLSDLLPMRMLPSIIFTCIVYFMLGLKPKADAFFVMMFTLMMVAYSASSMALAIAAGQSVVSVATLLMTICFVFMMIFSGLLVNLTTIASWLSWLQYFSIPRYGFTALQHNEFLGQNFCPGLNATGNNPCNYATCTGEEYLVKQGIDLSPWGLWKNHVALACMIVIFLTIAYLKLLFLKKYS
Protocol: In immunofluorescence microscopy of plasma membrane targeting of ABCG2 and nuclear accumulation of IAs, cells (1×10^4/well) were seeded in 24-well plates (1 ml medium/well) and incubated for 2 days, following which some wells were supplemented with 10 μM IA-containing medium±5 μM FTC and incubated for 1 h at 37° C. Cells were then washed twice with ice-cold PBS containing 0.1% BSA and blocked for 10 min at 4° C. with PBS containing 5% BSA. Cells were then washed once with ice-cold PBS containing 0.1% BSA and incubated for 30 min at 4° C. with a Phycoerythrin-conjugated, affinity-purified 5D3 mouse anti-human ABCG2 monoclonal antibody (1:100; eBioscience). Unspecific fluorescence was determined using cells that were incubated only with a secondary Phycoerythrin (PE)-conjugated goat anti-mouse IgG (1:200; Jackson Immunoresearch Labs, West Grove, Pa.). Cells were then washed twice and subjected to fluorescence microscopy using a DMIRE2 fluorescence microscope equipped with a DC300FX camera (Leica Microsystems, Wetzlar, Germany).
In order to exclude the possibility that differential subcellular accumulation of IA derivatives is the basis of the observed difference in cytotoxicity and cellular fluorescence, A549/K1.5 cells were incubated with 10 μM of selected IA derivatives from both group A and B in the presence or absence of FTC and subjected to fluorescence microscopy.

[2] = molecular target: T1, ABCG2 (A549/K1.5 cells); experiment: Flow cytometric IA accumulation in A549/K1.5 cells with or without fumitremorgin C; type: cell-based
Protocol: In this assay, one ml aliquots of A549/K1.5 or CCRF-CEM cell suspensions (1×10^6 cells/ml) in growth medium containing 20 mM Hepes at pH 7.3 were distributed into 1.5 ml polypropylene Eppendorf test tubes. […] Rabindran, S. […] Alternatively, in time-course experiments, IA derivatives at a constant concentration of 10 μM were added to a CCRF-CEM cell suspension incubated at 37° C., and 1 ml aliquots were removed at variable time points up to 1 hour. Following incubation, test tubes were transferred to ice and centrifuged at 4° C. Cells were then washed twice and re-suspended in ice-cold PBS containing 1% fetal calf serum and kept in the dark at 4° C. until analysis. […] Quantitative evaluation of ABCG2 interaction with various IA derivatives: The extent of ABCG2-mediated resistance was expressed using the Resistance Fold (RF) parameter representing the ratio between the IC50 values of the resistant cells and parental cells.

CCN(CC)CCNc1ccc2ncn3c4ccc(O)cc4c(=O)c1c23 [C-1311]
intracellular accumulation (fluorescence microscopy) ([1]; absence of FTC): no apparent intracellular accumulation | nuclear accumulation (fluorescence microscopy) ([1]; presence of 5 μM FTC): marked restoration of nuclear accumulation | ABCG2-mediated extrusion / interaction with ABCG2 (in words) [2]: extruded by ABCG2-overexpressing lung cancer A549/K1.5 cells
